Experimental data from patent US20240252651A1, “METHOD OF DELIVERING NUCLEIC ACIDS INTO CELLS” (GUANGZHOU LIDE BIOMEDICINE TECHNOLOGY CO., LTD., priority 2021, published 2024).
Entries after “also recorded” stand apart in the source; their conditions may differ.

What was measured:
DC 2.4 cells = experiment: Transfection of eGFP-mRNA in DC 2.4 cells (FCM and LSCM); assay type: cell-based, mouse; settings: mRNA 0.2 μg/well, material 0.25 to 2 μg/well (dosages per FIG. 7), 24 h
Description: In this experiment, with eGFP-mRNA as model mRNA, an mRNA transfection efficiency of a cationic lipid analog material in DC 2.4 cells was detected. A specific operation method was as follows:
DC 2.4 cells were inoculated in a 48-well plate and cultured in an incubator for 12 h; each of different cationic lipid analog materials (0.25 μg/well to 2 μg/well) was mixed with cGFP-expressing mRNA (0.2 μg/well) in 20 μL of a sodium acetate buffer (25 mM, pH 5.2), and resulting mixtures each were allowed to stand for 10 min and then diluted with 230 μL of a Opti-MEM medium to obtain mRNA-loaded complex particle solutions; a medium for the […] were washed once with PBS, and the complex particle solutions were added; and the cells were cultured for 24 h, an mRNA transfection efficiency in cells was observed by FCM and LSCM. A commercial gene transfection reagent Lipofectamine 2000 was adopted as a positive control.

Hela cells = experiment: Transfection of GFP-expressing plasmid DNA in Hela cells (flow cytometer); assay type: cell-based, human; settings: plasmid DNA 0.5 μg/well, material 0.25 to 8 μg/well (dosages per FIG. 4), 24 h
Description: In this experiment, with GFP-expressing plasmid DNA as a reporter gene, a gene transfection efficiency of a cationic lipid analog material in Hela cells was detected. A specific method was as follows:
Hela cells were inoculated in a 24-well plate and cultured in an incubator for 12 h; each of different cationic lipid analog materials (0.25 μg/well to 8 μg/well) was mixed with GFP-expressing plasmid DNA (0.5 μg/well) in 40 μL of a sodium acetate buffer (25 mM, pH 5.2), and resulting mixtures each were allowed to stand for 10 min and then diluted with 460 μL of an Opti-MEM medium to obtain plasmid DNA-loaded cationic lipid analog complex particle solutions; a medium for the Hela cells in the plate was removed, then the HeLa cells were washed once with PBS, and the complex particle solutions were added; and the cells were cultured for 24 h, and then a plasmid DNA transfection efficiency in cells was analyzed by a flow cytometer. A commercial gene transfection reagent Lipofectamine 2000 was adopted as a positive control.

Structure (SMILES) | mRNA transfection efficiency (eGFP-mRNA), compared with Lipofectamine 2000 (DC 2.4 cells; FIG. 7-9) | transfection efficiency of GFP-expressing plasmid DNA, compared with commercial transfection reagent Lipofectamine 2000 (Hela cells) | further results
CCCCCCCCCCCCCC(=O)N(CCCN(CC)CC)C(C(=O)NCCOCCOCCNC(=O)C(C(C)C)N(CCCN(CC)CC)C(=O)CCCCCCCCCCCCC)C(C)C (centres unmarked) [I2R3C14A1] | high transfection efficiency; also recorded: equivalent to or higher than | – | –
CCCCCCCCCCCCCC(=O)N(CCC1CCCN1C)C(C(=O)NCCOCCOCCNC(=O)C(C(C)C)N(CCC1CCCN1C)C(=O)CCCCCCCCCCCCC)C(C)C (centres unmarked) [I2R11C14A1] | high transfection efficiency; also recorded: equivalent to or higher than | reaches or is higher than; also recorded: equivalent to or higher than | –
CCCCCCCCCCCCCCCC(=O)N(CCC1CCCN1C)C(C(=O)NCCCCCCNC(=O)C(C(C)C)N(CCC1CCCN1C)C(=O)CCCCCCCCCCCCCCC)C(C)C (centres unmarked) [I1R11C16A1] | high transfection efficiency; also recorded: equivalent to or higher than | – | –
CCCCCCCCCCCCCCCCCC(=O)N(CCC1CCCN1C)C(C(=O)NCCCCCCNC(=O)C(C(C)C)N(CCC1CCCN1C)C(=O)CCCCCCCCCCCCCCCCC)C(C)C (centres unmarked) [I1R11C18A1] | – | – | mRNA transfection efficiency (eGFP-mRNA), compared with Lipofectamine 2000 (DC 2.4 cells; FIG. 7-9, listed as 11R11C18A1): high transfection efficiency; also recorded: equivalent to or higher than
CCCCC/C=C\C/C=C\CCCCCCCC(=O)N(CCCN(C)C)C(C(=O)NCCCCCCNC(=O)C(C(C)C)N(CCCN(C)C)C(=O)CCCCCCC/C=C\C/C=C\CCCCC)C(C)C (centres unmarked) [I1R2C18-2A1] | equivalent to or higher than | reaches or is higher than | mRNA transfection efficiency (eGFP-mRNA), compared with Lipofectamine 2000 (DC 2.4 cells; FIG. 7-9, listed as 11R2C18-2A1): high transfection efficiency; transfection efficiency of GFP-expressing plasmid DNA, compared with commercial transfection reagent Lipofectamine 2000 (Hela cells; listed as 11R2C18-2A1): equivalent to or higher than
CCCCCCCCCCCCCCCCCC(=O)N(CCCN(C)C)C(C(=O)NCCCCCCNC(=O)C(C(C)C)N(CCCN(C)C)C(=O)CCCCCCCCCCCCCCCCC)C(C)C (centres unmarked) [I1R2C18A1] | – | – | mRNA transfection efficiency (eGFP-mRNA), compared with Lipofectamine 2000 (DC 2.4 cells; FIG. 7-9, listed as 11R2C18A1): high transfection efficiency; also recorded: equivalent to or higher than
CCCCCCCC/C=C\CCCCCCCC(=O)N(CCC1CCCN1C)C(C(=O)NCCOCCOCCNC(=O)C(C(C)C)N(CCC1CCCN1C)C(=O)CCCCCCC/C=C\CCCCCCCC)C(C)C (centres unmarked) [I2R11C18-1A1] | high transfection efficiency; also recorded: equivalent to or higher than | reaches or is higher than; also recorded: equivalent to or higher than | –
CCCCCCCCCCCCCCCC(=O)N(CCC1CCCN1C)C(C(=O)NCCOCCOCCNC(=O)C(C(C)C)N(CCC1CCCN1C)C(=O)CCCCCCCCCCCCCCC)C(C)C (centres unmarked) [I2R11C16A1] | high transfection efficiency; also recorded: equivalent to or higher than | reaches or is higher than; also recorded: equivalent to or higher than | –
CCCCC/C=C\C/C=C\CCCCCCCC(=O)N(CCN(C)C)C(C(=O)NCCOCCOCCNC(=O)C(C(C)C)N(CCN(C)C)C(=O)CCCCCCC/C=C\C/C=C\CCCCC)C(C)C (centres unmarked) [I2R1C18-2A1] | – | reaches or is higher than; also recorded: equivalent to or higher than | –
CCCCCCCCCCCCCCCC(=O)N(CCCN(C)C)C(C(=O)NCCCCCCNC(=O)C(C(C)C)N(CCCN(C)C)C(=O)CCCCCCCCCCCCCCC)C(C)C (centres unmarked) [I1R2C16A1] | – | – | mRNA transfection efficiency (eGFP-mRNA), compared with Lipofectamine 2000 (DC 2.4 cells; FIG. 7-9, listed as 11R2C16A1): high transfection efficiency; also recorded: equivalent to or higher than
CCCCCCCC/C=C\CCCCCCCC(=O)N(CCCN(C)C)C(C(=O)NCCCCCCNC(=O)C(C(C)C)N(CCCN(C)C)C(=O)CCCCCCC/C=C\CCCCCCCC)C(C)C (centres unmarked) [I1R2C18-1A1] | – | – | mRNA transfection efficiency (eGFP-mRNA), compared with Lipofectamine 2000 (DC 2.4 cells; FIG. 7-9, listed as 11R2C18-1A1): high transfection efficiency; also recorded: equivalent to or higher than
